Tested on: hepatocytes
Assay: RNA-seq of hepatocytes treated with Phase III failure compounds
Description: RNA-seq was performed to determine the effects of the compounds on hepatocytes.
Significance was determined by the criteria of FPKM≥0.5, a log 2(fold-change)≥1, and a […].

SMILES: C=CCNC1=C2C[C@@H](C)C[C@H](OC)[C@H](O)[C@@H](C)/C=C(\C)[C@H](OC(N)=O)[C@@H](OC)/C=C\C=C(/C)C(=O)NC(=CC1=O)C2=O [17-MG (Tanespimycin), Tanespimycin]
- RNA-seq results, CYP2B6 expression: 1.32
- RNA-seq results, CYP2C19 expression: 0.34
- RNA-seq results, CYP2D6 expression: 0.06
- RNA-seq results, CYP3A4 expression: 2.50
- RNA-seq results, CYP7B1 expression: 0.43
- RNA-seq results, CYP39A1 expression: 1.38
- RNA-seq results: CYP2B6 expression: 0.2
- RNA-seq results: CYP2C19 expression: −1.4
- RNA-seq results: CYP2D6 expression: 0.27
- RNA-seq results: CYP3A4 expression: 0.96
- RNA-seq results: CYP7B1 expression: −1.05
- RNA-seq results: CYP39A1 expression: −0.62
- RNA-seq results: A1BG expression (gene A1BG, hepatocytes): −0.10
- RNA-seq results: AGTR1 expression (gene AGTR1, hepatocytes): −0.03
- RNA-seq results: AGXT expression (gene AGXT, hepatocytes): 0.27
- RNA-seq results: AHI1 expression (gene AHI1, hepatocytes): 0.39
- RNA-seq results: AMPD3 expression (gene AMPD3, hepatocytes): 1.15
- RNA-seq results: AMT expression (gene AMT, hepatocytes): 0.31
- RNA-seq results: ANGPTL3 expression (gene ANGPTL3, hepatocytes): 0.06
- RNA-seq results: ANKS4B expression (gene ANKS4B, hepatocytes): 1.12
- RNA-seq results: ANKS6 expression (gene ANKS6, hepatocytes): −0.15
- RNA-seq results: ANPEP expression (gene ANPEP, hepatocytes): −0.06
- RNA-seq results: AOC2 expression (gene AOC2, hepatocytes): 0.24
- RNA-seq results: APOA2 expression (gene APOA2, hepatocytes): −0.64
- RNA-seq results: APOA5 expression (gene APOA5, hepatocytes): 0.07
- RNA-seq results: APOB expression (gene APOB, hepatocytes): 2.13
- RNA-seq results: COG5 expression (gene COG5, hepatocytes): −1.94
- RNA-seq results: COG6 expression (gene COG6, hepatocytes): −0.28
- RNA-seq results: COL1A1 expression (gene COL1A1, hepatocytes): 0.45
- RNA-seq results: COX6A1 expression (gene COX6A1, hepatocytes): 0.27
- RNA-seq results: CP expression (gene CP, hepatocytes): 0.19
- RNA-seq results: CPS1 expression (gene CPS1, hepatocytes): −0.79
- RNA-seq results: CPT1A expression (gene CPT1A, hepatocytes): −1.18
- RNA-seq results: CPT2 expression (gene CPT2, hepatocytes): 1.3
- RNA-seq results: CROT expression (gene CROT, hepatocytes): 0.23
- RNA-seq results: CSPP1 expression (gene CSPP1, hepatocytes): −0.45
- RNA-seq results: CTC1 expression (gene CTC1, hepatocytes): 0.65
- RNA-seq results: CTDSP2 expression (gene CTDSP2, hepatocytes): −0.36
- RNA-seq results: CTH expression (gene CTH, hepatocytes): 1.32
- RNA-seq results: CTNS expression (gene CTNS, hepatocytes): −0.39
- RNA-seq results: CTSF expression (gene CTSF, hepatocytes): 0.01
- RNA-seq results: CTSK expression (gene CTSK, hepatocytes): 1.01
- RNA-seq results: CYB5A expression (gene CYB5A, hepatocytes): −0.54
- RNA-seq results: CYB5R3 expression (gene CYB5R3, hepatocytes): −0.57
- RNA-seq results: CYP27A1 expression (gene CYP27A1, hepatocytes): −0.12
- RNA-seq results: DAO expression (gene DAO, hepatocytes): −0.79
- RNA-seq results: DBT expression (gene DBT, hepatocytes): −0.27
- RNA-seq results: DCDC2 expression (gene DCDC2, hepatocytes): −2.14
- RNA-seq results: DCXR expression (gene DCXR, hepatocytes): −0.21
- RNA-seq results: FABP1 expression (gene FABP1, hepatocytes): −0.95
- RNA-seq results: FADD expression (gene FADD, hepatocytes): −0.41
- RNA-seq results: FAM111A expression (gene FAM111A, hepatocytes): 0.93
- RNA-seq results: FAM111B expression (gene FAM111B, hepatocytes): −1.24
- RNA-seq results: FAN1 expression (gene FAN1, hepatocytes): 0.32
- RNA-seq results: FARS2 expression (gene FARS2, hepatocytes): −3
- RNA-seq results: FASLG expression (gene FASLG, hepatocytes): −1.15
- RNA-seq results: FGA expression (gene FGA, hepatocytes): 0.46
- RNA-seq results: FGD1 expression (gene FGD1, hepatocytes): −1.37
- RNA-seq results: FGFR2 expression (gene FGFR2, hepatocytes): −2.48
- RNA-seq results: FIG4 expression (gene FIG4, hepatocytes): −0.69
- RNA-seq results: FIS1 expression (gene FIS1, hepatocytes): −0.22
- RNA-seq results: FTCD expression (gene FTCD, hepatocytes): −1.66
- RNA-seq results: FTH1 expression (gene FTH1, hepatocytes): −0.49
- RNA-seq results: FUCA1 expression (gene FUCA1, hepatocytes): 0.43
- RNA-seq results: FXN expression (gene FXN, hepatocytes): −1.04
- RNA-seq results: G6PC3 expression (gene G6PC3, hepatocytes): −0.38
- RNA-seq results: G6PC expression (gene G6PC, hepatocytes): −0.03
- RNA-seq results: G6PD expression (gene G6PD, hepatocytes): 1.7
- RNA-seq results: GALK1 expression (gene GALK1, hepatocytes): −0.7
- RNA-seq results: GALK2 expression (gene GALK2, hepatocytes): −1.47
- RNA-seq results: GALT expression (gene GALT, hepatocytes): −0.43
- RNA-seq results: GATA6 expression (gene GATA6, hepatocytes): −0.77
- RNA-seq results: GATM expression (gene GATM, hepatocytes): −1.11
- RNA-seq results: GBA expression (gene GBA, hepatocytes): −0.38
- RNA-seq results: GBE1 expression (gene GBE1, hepatocytes): −2.25
- RNA-seq results: GCH1 expression (gene GCH1, hepatocytes): 0.43
- RNA-seq results: GCKR expression (gene GCKR, hepatocytes): −0.16
- RNA-seq results: GCLC expression (gene GCLC, hepatocytes): −0.18
- RNA-seq results: GOSH expression (gene GOSH, hepatocytes): −1.49
- RNA-seq results: RRM2B (gene RRM2B, hepatocytes): 1.19
- RNA-seq results: RSAD1 (gene RSAD1, hepatocytes): −0.23
- RNA-seq results: SAMHD1 (gene SAMHD1, hepatocytes): −0.05
- RNA-seq results: SC5D (gene SC5D, hepatocytes): 1.56
- RNA-seq results: SCARB1 (gene SCARB1, hepatocytes): −0.35
- RNA-seq results: SCN9A (gene SCN9A, hepatocytes): −0.22
- RNA-seq results: SDCCAG8 (gene SDCCAG8, hepatocytes): 0.11
- RNA-seq results: SEPN1 (gene SEPN1, hepatocytes): −0.07
- RNA-seq results: SERAC1 (gene SERAC1, hepatocytes): 0.26
- RNA-seq results: SERPINA1 (gene SERPINA1, hepatocytes): −0.05
- RNA-seq results: SERPING1 (gene SERPING1, hepatocytes): 0.28
- RNA-seq results: SERPINI1 (gene SERPINI1, hepatocytes): 0.22
- RNA-seq results: SETBP1 (gene SETBP1, hepatocytes): 0.54
- RNA-seq results: SFXN4 (gene SFXN4, hepatocytes): −0.14
- RNA-seq results: SLC10A1 (gene SLC10A1, hepatocytes): 1.13
- RNA-seq results: SLC10A3 (gene SLC10A3, hepatocytes): −1.25
- RNA-seq results: SLC10A5 (gene SLC10A5, hepatocytes): 2.20
- RNA-seq results: SLC10A7 (gene SLC10A7, hepatocytes): 0.55
- RNA-seq results: SLC11A2 (gene SLC11A2, hepatocytes): 0.65
- RNA-seq results: SLC19A1 (gene SLC19A1, hepatocytes): −0.71
- RNA-seq results: SLC19A2 (gene SLC19A2, hepatocytes): 0.62
- RNA-seq results: SLC19A3 (gene SLC19A3, hepatocytes): 0.68
- RNA-seq results: SLC22A1 (gene SLC22A1, hepatocytes): 0.08
- RNA-seq results: SLC22A5 (gene SLC22A5, hepatocytes): −0.72
- RNA-seq results: SLC25A1 (gene SLC25A1, hepatocytes): −0.29
- RNA-seq results: SLC25A10 (gene SLC25A10, hepatocytes): −0.45
- RNA-seq results: SLC25A12 (gene SLC25A12, hepatocytes): −0.06
- RNA-seq results: SLC25A13 (gene SLC25A13, hepatocytes): 0.72
- RNA-seq results: SLC25A15 (gene SLC25A15, hepatocytes): 0.58
- RNA-seq results: SLC25A19 (gene SLC25A19, hepatocytes): −0.70
- RNA-seq results: SLC25A20 (gene SLC25A20, hepatocytes): −0.52
- RNA-seq results: SLC25A29 (gene SLC25A29, hepatocytes): −1.07
- RNA-seq results: SLC25A32 (gene SLC25A32, hepatocytes): −0.50
